Test results reported in patent US9765060B2 (Gilead Sciences, Inc., priority 2014, dated 2017).

Each compound was assayed against PI3K isoform δ (Homo sapiens (Human), UniProt O00329) (assay: TR-FRET assay of enzymatic activity of class I PI3K isoforms). Conditions: IC50 (nM) for PI3K isoform δ (Table 2), TR-FRET; 2× Km ATP, 2 μM PIP2; incubated for 30 minutes at 25° C.
PI3K isoform δ, sequence (O00329 whole entry, canonical isoform): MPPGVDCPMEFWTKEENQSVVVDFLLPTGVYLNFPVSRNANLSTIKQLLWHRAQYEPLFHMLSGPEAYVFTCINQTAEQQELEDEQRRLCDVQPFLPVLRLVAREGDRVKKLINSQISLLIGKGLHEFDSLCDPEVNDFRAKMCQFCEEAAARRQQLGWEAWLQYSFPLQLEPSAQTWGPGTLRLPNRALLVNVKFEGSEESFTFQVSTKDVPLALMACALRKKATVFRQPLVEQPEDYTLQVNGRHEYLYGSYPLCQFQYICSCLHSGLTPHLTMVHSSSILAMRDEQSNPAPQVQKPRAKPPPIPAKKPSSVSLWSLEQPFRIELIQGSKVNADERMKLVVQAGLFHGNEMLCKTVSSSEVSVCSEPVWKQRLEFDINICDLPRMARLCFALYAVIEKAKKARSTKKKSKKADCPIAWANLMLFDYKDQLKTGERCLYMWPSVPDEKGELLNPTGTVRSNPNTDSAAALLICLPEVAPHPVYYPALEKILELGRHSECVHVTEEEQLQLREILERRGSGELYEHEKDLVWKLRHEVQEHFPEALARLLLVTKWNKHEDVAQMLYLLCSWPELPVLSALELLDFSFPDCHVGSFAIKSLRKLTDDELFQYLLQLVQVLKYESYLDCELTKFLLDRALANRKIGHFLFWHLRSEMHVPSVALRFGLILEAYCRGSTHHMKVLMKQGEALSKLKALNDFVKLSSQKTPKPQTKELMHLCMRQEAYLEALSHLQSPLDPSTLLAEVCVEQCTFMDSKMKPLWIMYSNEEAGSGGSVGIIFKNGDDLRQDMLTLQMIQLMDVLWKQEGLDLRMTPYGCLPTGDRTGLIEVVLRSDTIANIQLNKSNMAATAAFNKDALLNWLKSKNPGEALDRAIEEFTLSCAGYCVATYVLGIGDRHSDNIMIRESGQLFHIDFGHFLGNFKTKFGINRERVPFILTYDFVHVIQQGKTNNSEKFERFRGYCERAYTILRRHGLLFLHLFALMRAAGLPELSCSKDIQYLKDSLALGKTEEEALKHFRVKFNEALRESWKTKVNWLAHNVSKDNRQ
PI3K isoform δ, sequence (P27986 whole entry partner, canonical isoform): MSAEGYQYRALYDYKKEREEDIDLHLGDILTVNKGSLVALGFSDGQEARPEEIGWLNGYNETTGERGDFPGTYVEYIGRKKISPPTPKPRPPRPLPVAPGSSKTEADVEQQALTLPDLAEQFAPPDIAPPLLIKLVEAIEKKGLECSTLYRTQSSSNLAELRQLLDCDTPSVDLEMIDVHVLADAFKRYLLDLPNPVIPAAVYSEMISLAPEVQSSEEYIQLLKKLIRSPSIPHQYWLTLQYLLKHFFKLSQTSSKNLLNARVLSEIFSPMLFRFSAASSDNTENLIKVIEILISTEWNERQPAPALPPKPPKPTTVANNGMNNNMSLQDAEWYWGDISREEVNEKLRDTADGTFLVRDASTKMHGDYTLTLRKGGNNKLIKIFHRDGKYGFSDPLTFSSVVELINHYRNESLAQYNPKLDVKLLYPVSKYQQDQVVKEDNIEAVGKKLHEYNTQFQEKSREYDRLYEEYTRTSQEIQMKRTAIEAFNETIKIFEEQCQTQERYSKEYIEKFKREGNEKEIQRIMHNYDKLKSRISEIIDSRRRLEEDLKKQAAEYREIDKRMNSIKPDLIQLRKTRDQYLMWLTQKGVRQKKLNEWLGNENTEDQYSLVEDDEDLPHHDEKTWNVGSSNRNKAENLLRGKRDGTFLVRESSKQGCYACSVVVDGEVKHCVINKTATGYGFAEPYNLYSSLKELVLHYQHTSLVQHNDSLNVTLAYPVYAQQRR
Excerpt: TR-FRET monitored the formation of 3,4,5-inositol triphosphate molecule that competed with fluorescently labeled PIP3 for binding to the GRP-1 pleckstrin homology domain protein. […] Class I PI3K isoforms were expressed and purified as heterodimeric recombinant proteins. All assay reagents and buffers for the TR-FRET assay were purchased from Millipore.

Compound | IC50
CS(=O)(=O)c1cccc2nc(C(Nc3nc(N)nc(N)c3C#N)C3CC3)n(-c3ccccc3F)c(=O)c12 (single isomer, unassigned) [Compound 17a-1] | 6 nM

Same assay, conditions: read-out: IC50 (nM) for PI3K isoform δ (Table 2); TR-FRET; 2× Km ATP, 2 μM PIP2; incubated for 30 minutes at 25° C.

Compound | IC50
CS(=O)(=O)c1cccc2nc([C@@H](Nc3nc(N)nc(N)c3C#N)C3CC3)n(-c3c(F)cccc3F)c(=O)c12 [Compound 6a, (S)-2,4-diamino-6-((cyclopropyl(3-(2,6-difluorophenyl)-5-(methylsulfonyl)-4-oxo-3,4-dihydroquinazolin-2-yl)methyl)amino)pyrimidine-5-carbonitrile] | 41 nM
C[C@H](Nc1ncnc(N)c1C#N)c1nc2cccc(Cl)c2c(=O)n1-c1ccccc1 [Compound Y, (S)-4-amino-6-((1-(5-chloro-4-oxo-3-phenyl-3,4-dihydroquinazolin-2-yl)ethyl)amino)pyrimidine-5-carbonitrile, reference compound] | 0.4 nM
Cc1cccc2nc([C@@H](Nc3nc(N)nc(N)c3C#N)C3CC3)n(-c3cc(F)cc(C#N)c3)c(=O)c12 [Compound 11a, (S)-2,4-diamino-6-(((3-(3-cyano-5-fluorophenyl)-5-methyl-4-oxo-3,4-dihydroquinazolin-2-yl)(cyclopropyl)methyl)amino)pyrimidine-5-carbonitrile] | 14 nM
N#Cc1c(N)nc(N)nc1N[C@H](c1nc2cccc(C#N)c2c(=O)n1-c1cc(F)cc(C(F)F)c1)C1CC1 [Compound 4a] | 49 nM
CC(=O)c1c(N)nc(N)nc1N[C@@H](C)c1nc2cccc(Cl)c2c(=O)n1-c1cc(F)cc(F)c1 [Compound 18a, (S)-2 (1-((5-acetyl-2,6-diaminopyrimidin-4-yl)amino)ethyl)-5-chloro-3-(3,5-difluorophenyl)quinazolin-4(3H)-one] | 6 nM
N#Cc1c(N)nc(N)nc1N[C@H](c1nc2cccc(F)c2c(=O)n1-c1cc(F)cc(F)c1)C1CC1 [Compound 14a, (S)-2,4-diamino-6-((cyclopropyl(3-(3,5-difluorophenyl)-5-fluoro-4-oxo-3,4-dihydroquinazolin-2-yl)methyl)amino)pyrimidine-5-carbonitrile] | 19 nM

Same assay, conditions: read-out: IC50 (nM) for PI3K isoform δ (Table 3); TR-FRET; 2× Km ATP, 2 μM PIP2; incubated for 30 minutes at 25° C.

Compound | IC50
C[C@H](Nc1nc(N)nc(N)c1C#N)c1nc2cccc(OCCN3CCCC3)c2c(=O)n1-c1ccccc1 [Compound 24, (S)-2,4-diamino-6-((1-(4-oxo-3-phenyl-5-(2-(pyrrolidin-1-yl)ethoxy)-3,4-dihydroquinazolin-2-yl)ethyl)amino)pyrimidine-5-carbonitrile] | 10 nM
N#Cc1c(N)nc(N)nc1N1C[C@H](NC(=O)CN)C[C@H]1c1nc2cccc(Cl)c2c(=O)n1-c1ccccc1 [Compound 115, 2-amino-N-((3R,5S)-5-(5-chloro-4-oxo-3-phenyl-3,4-dihydroquinazolin-2-yl)-1-(2,6-diamino-5-cyanopyrimidin-4-yl)pyrrolidin-3-yl)acetamide] | 64 nM
Nc1nc(N)c(Cl)c(N2CCOC[C@H]2c2nc3cccc(Cl)c3c(=O)n2-c2ccccc2)n1 [Compound 100, (R)-5-chloro-2-(4-(2,6-diamino-5-chloropyrimidin-4-yl)morpholin-3-yl)-3-phenylquinazolin-4(3H)-one] | 8400 nM
Cc1ccc(Cl)c2c(=O)n(-c3cc(F)cc(F)c3)c([C@@H]3CCCN3c3nc(N)nc(N)c3C#N)nc12 [Compound 84, (S)-2,4-diamino-6-(2-(5-chloro-3-(3,5-difluorophenyl)-8-methyl-4-oxo-3,4-dihydroquinazolin-2-yl)pyrrolidin-1-yl)pyrimidine-5-carbonitrile] | 4 nM
Cc1cccc2c(=O)n(-c3cc(F)cc(F)c3)c([C@@H]3CCCN3c3nc(N)nc(N)c3C#N)nc12 [Compound 86, (S)-2,4-diamino-6-(2-(3-(3,5-difluorophenyl)-8-methyl-4-oxo-3,4-dihydroquinazolin-2-yl)pyrrolidin-1-yl)pyrimidine-5-carbonitrile] | 12 nM
C[C@H](Nc1nc(N)nc(N)c1C#N)c1nc2cccc(CCCC(=O)O)c2c(=O)n1-c1ccccc1 [Compound 69, (S)-4-(2-(1-((2,6-diamino-5-cyanopyrimidin-4-yl)amino)ethyl)-4-oxo-3-phenyl-3,4-dihydroquinazolin-5-yl)butanoic acid] | 1 nM
C[C@H](Nc1nc(N)nc(N)c1C#N)c1nc2c(F)ccc(CCCN3CCC(F)(F)C3)c2c(=O)n1-c1ccccc1 [Compound 55, (S)-2,4-diamino-6-((1-(5-(3-(3,3-difluoropyrrolidin-1-yl)propyl)-8-fluoro-4-oxo-3-phenyl-3,4-dihydroquinazolin-2-yl)ethyl)amino)pyrimidine-5-carbonitrile] | 0.4 nM
C[C@@H]1C[C@@H](c2nc3cccc(Cl)c3c(=O)n2-c2ccccc2)N(c2nc(N)nc(N)c2C#N)C1 [Compound 94, 2,4-diamino-6-((2S,4R)-2-(5-chloro-4-oxo-3-phenyl-3,4-dihydroquinazolin-2-yl)-4-methylpyrrolidin-1-yl)pyrimidine-5-carbonitrile] | 2 nM
C[C@H](Nc1nc(N)nc(N)c1Cl)c1nc2cccc(CCC(N)=O)c2c(=O)n1-c1cc(F)cc(F)c1 [Compound 42, (S)-3-(2-(1-((2,6-diamino-5-chloropyrimidin-4-yl)amino)ethyl)-3-(3,5-difluorophenyl)-4-oxo-3,4-dihydroquinazoline-5-yl)propanamide] | 20 nM
C[C@H](Nc1nc(N)nc(N)c1C#N)c1nc2cccc(CCCN3CCCC3)c2c(=O)n1-c1cc(F)cc(F)c1 [Compound 51, (S)-2,4-diamino-6-((1-(3-(3,5-difluorophenyl)-4-oxo-5-(3-(pyrrolidin-1-yl)propyl)-3,4-dihydroquinazolin-2-yl)ethyl)amino)pyrimidine-5-carbonitrile] | 3 nM
N#Cc1c(N)nc(N)nc1N1C[C@H](NC(=O)C(F)F)C[C@H]1c1nc2cccc(Cl)c2c(=O)n1-c1cc(F)cc(F)c1 [Compound 109, N-((3R,5S)-5-(5-chloro-3-(3,5-difluorophenyl)-4-oxo-3,4-dihydroquinazolin-2-yl)-1-(2,6-diamino-5-cyanopyrimidin-4-yl)pyrrolidin-3-yl)-2,2-difluoroacetamide] | 0.7 nM
C[C@H](Nc1nc(N)nc(N)c1Cl)c1nc2cccc(CCC(N)=O)c2c(=O)n1-c1ccccc1 [Compound 43, (S)-3-(2-(1-((2,6-diamino-5-chloropyrimidin-4-yl)amino)ethyl)-4-oxo-3-phenyl-3,4-dihydroquinazoline-5-yl)propanamide] | 9 nM
C[C@H](Nc1nc(N)nc(N)c1C#N)c1nc2cccc(CCCN3CCCCC3)c2c(=O)n1-c1ccccc1 [Compound 46, (S)-2,4-diamino-6-((1-(4-oxo-3-phenyl-5-(3-(piperidin-1-yl)propyl)-3,4-dihydroquinazolin-2-yl)ethyl)amino)pyrimidine-5-carbonitrile] | 0.4 nM
N#Cc1c(N)nc(N)nc1N1CCC[C@H]1c1nc2cccc(CCCC(=O)O)c2c(=O)n1-c1ccccc1 [Compound 70, (S)-4-(2-(1-(2,6-diamino-5-cyanopyrimidin-4-yl)pyrrolidin-2-yl)-4-oxo-3-phenyl-3,4-dihydroquinazolin-5-yl)butanoic acid] | 3 nM
N#Cc1c(N)nc(N)nc1N[C@H](c1nc2cccc(CCCN3CCCCC3)c2c(=O)n1-c1ccccc1)C1CC1 [Compound 57, (S)-2,4-diamino-6-((cyclopropyl(4-oxo-3-phenyl-5-(3-(piperidin-1-yl)propyl)-3,4-dihydroquinazolin-2-yl)methyl)amino)pyrimidine-5-carbonitrile] | 1.4 nM
C[C@H](Nc1nc(N)nc(N)c1C#N)c1nc2cccc(OCCN3CCCCC3)c2c(=O)n1-c1ccccc1 [Compound 30, (S)-2,4-diamino-6-((1-(4-oxo-3-phenyl-5-(2-(piperidin-1-yl)ethoxy)-3,4-dihydroquinazolin-2-yl)ethyl)amino)pyrimidine-5-carbonitrile] | 6 nM
C[C@H](Nc1nc(N)nc(N)c1C#N)c1nc2cccc(S(=O)(=O)CCN3CCCC3)c2c(=O)n1-c1cccc(F)c1 [Compound 82, (S)-2,4-diamino-6-((1-(3-(3-fluorophenyl)-4-oxo-5-((2-(pyrrolidin-1-yl)ethyl)sulfonyl)-3,4-dihydroquinazolin-2-yl)ethyl)amino)pyrimidine-5-carbonitrile] | 2 nM
C[C@H](Nc1nc(N)nc(N)c1C#N)c1nc2cccc(S(=O)(=O)CCO)c2c(=O)n1-c1cccc(F)c1 [Compound 78, (S)-2,4-diamino-6-((1-(3-(3-fluorophenyl)-5-((2-hydroxyethyl)sulfonyl)-4-oxo-3,4-dihydroquinazolin-2-yl)ethyl)amino)pyrimidine-5-carbonitrile] | 9 nM
CC(Cc1cccc2nc([C@H](C)Nc3nc(N)nc(N)c3C#N)n(-c3ccccc3)c(=O)c12)N1CCCC1 (stereo partly drawn) [Compound 45, (S)-2,4-diamino-6-((1-(4-oxo-3-phenyl-5-(2-(pyrrolidin-1-yl)propyl)-3,4-dihydroquinazolin-2-yl)ethyl)amino)pyrimidine-5-carbonitrile] | 0.7 nM
C[C@H](Nc1nc(N)nc(N)c1C#N)c1nc2cccc(OCC3(C)COC3)c2c(=O)n1-c1ccccc1 [Compound 34, (S)-2,4-diamino-6-((1-(5-((3-methyloxetan-3-yl)methoxy)-4-oxo-3-phenyl-3,4-dihydroquinazolin-2-yl)ethyl)amino)pyrimidine-5-carbonitrile] | 46 nM
CS(=O)(=O)c1cccc2nc([C@@H]3CCCN3c3nc(N)nc(N)c3C#N)n(-c3ccccc3F)c(=O)c12 (atropisomer, axis not shown) [Compound 74, (S)-2,4-diamino-6-(2-(3-(2-fluorophenyl)-5-(methylsulfonyl)-4-oxo-3,4-dihydroquinazolin-2-yl)pyrrolidin-1-yl)pyrimidine-5-carbonitrile] | 3 nM
C[C@H](Nc1nc(N)nc(N)c1C#N)c1nc2cccc(C3=CCNCC3)c2c(=O)n1-c1ccccc1 [Compound 93, (S)-2,4-diamino-6-((1-(4-oxo-3-phenyl-5-(1,2,3,6-tetrahydropyridin-4-yl)-3,4-dihydroquinazolin-2-yl)ethyl)amino)pyrimidine-5-carbonitrile] | 17 nM
